Source: a melting point compilation (Tetko et al.; mined from patent text by program, amines drawn as free bases though some values may be those of a salt)

melting point [°C]	Structure (SMILES)
200 to 201	COC(=O)Nc1cc(-c2nc(-c3ccco3)no2)ccc1Cl
129 to 139	CCNc1c(C(=O)O)ccc(Br)c1OCC
75	CCOC(=O)C1=C(C)N(CCOC(=O)c2ccccc2)C(=O)NC1c1ccc(OC)cc1 (centres undefined)
125 to 127	COC(=O)CCCc1cc2cc(Cl)ccc2n1S(=O)(=O)c1c(C)nn(C)c1C
120 to 122	CC(C)(C)OC(=O)Oc1ccc(C(C(=O)OC(c2ccccc2)c2ccccc2)N2CC(N)C2=O)cc1 (centres undefined)
> 330	CC(=O)Nc1nc2cc3[nH]c(-c4ccncc4)nc3cc2[nH]1
94 to 95	COCCOc1ccc2c(c1)OCC21C(=O)N(Cc2ccccn2)c2ccccc21 (centres undefined)
294 to 298	CN1CCN(c2ccc(Nc3ncc4c(n3)S/C(=C/c3ccc(C(N)=O)cc3)C(=O)N4)cc2)CC1
104 to 107	CC1(C)CCC(C)(C)N1CC(O)COc1cc2ccccc2c(=O)c2ccsc12 (centres undefined)
208	Cc1ccc(S(=O)(=O)N(C)c2cc(C)cc([N+](=O)[O-])c2N)cc1
151 to 154	COc1cc2c(cc1F)CCN=C2C1(c2ccc(Cl)cc2Cl)CC1
135 to 144	Cc1cccc(C=CCC(CCC(=O)O)(C(=O)C=Cc2ccc(Cl)cc2)c2ccccc2)c1 (centres undefined)
108 to 116	CCOC1CC(O)C(=O)N1S(=O)(=O)c1ccccc1 (centres undefined)
139	CC(C)(C)OC(=O)Nc1cc(OC(C)(C)C)c(-c2ccc(F)cc2)cc1N
243 to 245	CCOC(=O)N1Cc2sc3ncn(CCO)c(=O)c3c2C1
87 to 88	COP(=O)(Cc1ccc2ccc(CP(=O)(OC)OC)cc2c1)OC
107 to 110	OCC1OC(n2cnc3c(NCC(c4ccccc4)c4cccc(Cl)c4)ncnc32)C(O)C1O (centres undefined)
130 to 132	CC#CCCn1ncc2c(NC(=O)CC)c3c(nc21)CN(CCC)C3=O
120 to 124	CC(OC(C)(C)C(=O)O)c1cc(-c2ccc(Cl)cc2)no1 (single isomer, unassigned; (+))
242	Cc1cccc(C=NNC(=O)c2ccc(O)cc2)c1
240 to 243	N#Cc1ccc2c(c1)S(=O)c1ccc(F)cc1C=C2 (centres undefined)
65 to 67	COc1ccc(CSc2cc(OC)c(OC)c(OC)c2)cc1
80 to 82	CCOC(=O)C(=O)Nc1cc(C#N)c(Cl)cc1[N+](=O)[O-]
101 to 102	OCc1ccc2ccccc2c1Br

melting point [°C]	Structure (SMILES)
73 to 76	COC(=O)C[C@@H]1C(=O)NC[C@H](Cc2cc(F)ccc2OC)C(=O)N1S(=O)(=O)c1ccc(Cl)cc1
159 to 161	Nc1nc(CSCCN2CCN(C(c3ccccc3)c3ccccc3)CC2)cs1
150 to 151	O=C(O)c1cnncc1C(F)(F)F
153 to 154	CC(=O)OC(c1cccnc1)c1c(O)c(=O)ccn1C (centres undefined)
185 to 189	CNC(=O)c1ccc(N2CCN(Cc3cc4c(c(-c5ccccc5)c3)OC(C)C(=O)N4)CC2)cc1 (centres undefined)
250 to 253	Cn1nc2nc(C(C)(C)C)[nH]c(=O)c2c1N=Cc1ccccc1
146 to 149	CCOC(=O)c1oc(-c2ccc(Cl)cc2)cc(=O)c1Br
109	N#Cc1c(CNC(=O)C2(S(=O)(=O)c3ccc(Cl)cc3)CCCC2)nn(-c2ccccc2Cl)c1-c1ccc(Cl)cc1
161 to 162	CSc1ccc(C=C2CCc3cc(OCCn4ccnc4)ccc3C2=O)cc1
> 260	COC(=O)c1c[nH]c(C=Cc2cnc3nc(NC(=O)C(C)(C)C)nc(O)c3c2)c1
79 to 80	CCCCCCCCCCCCCCCCSCC(CNS(=O)(=O)CCCCl)NC(=O)NC (centres undefined)
117 to 120	CN(C)CCCc1ccc(S(=O)(=O)N2CCC(Nc3nc(N)c(C(=O)c4c(F)cccc4F)s3)CC2)cc1
142 to 143	O=C(O)CCc1sc(-c2ccccc2)nc1-c1ccc(Cl)cc1
76 to 78	ICC(c1ccccc1)c1ccccc1
205 to 207	COc1ccc(-c2cc(=O)c3c(O)c(I)c(OC)cc3o2)cc1
185 to 186	O=C(Cn1c(-c2ccc(Cl)cc2)nc2cccnc21)N1CCN(c2cccc(C(F)(F)F)c2)CC1
164 to 166	CCn1c(-c2ccc(Cl)c(S(=O)(=O)N(C)C)c2)csc1=Nc1ccccc1C
75 to 77	COc1c(C=O)cc(Cl)c(Cl)c1OC
47 to 48	CCC1=C(O)C(=O)CO1
194 to 195	COC(=O)c1cccc(OC(=O)C(=O)Oc2cccc(C(=O)OC)c2)c1
116	CC1(C)[C@H]2[C@H](O)OC(=O)[C@H]21
122 to 123	O=C(c1cccc(C(F)(F)F)c1)N(CCCCc1cccnc1)C1=Nc2cccc3cccc1c23
130 to 132	Cc1cc(C(=O)OC(C)(C)C)c(NC(=O)Nc2ccc(Oc3ccccc3)cc2)s1
115 to 116	COC(=O)c1c(Nc2ccccc2)nn(C(C)=O)c1C

melting point [°C]	Structure (SMILES)
159 to 162	Cc1nc2ccc3cccnc3c2nc1C
205 to 207	O=C(CC(C(=O)O)C1CCCCC1)Nc1cccc(/C=C/c2nc(C3CCC3)cs2)c1 (centres undefined)
118 to 119	CN(C)CCN(C(=O)N(C)C)c1ccc(N)cn1
108 to 110	CC(C)(C(=O)O)c1cn2nc(CCCCN3CCN(C(c4ccccc4)c4ccccc4)CC3)ccc2n1
244 to 245	O=C(O)c1nn(-c2ccccc2)c2c1C(N1CCOCC1)c1ccccc1-2 (centres undefined)
99 to 100	CCCCOC(=O)[C@H]1CN(c2cc(F)c(N3CCOCC3)c(F)c2)C(=O)O1
83 to 84	CCCCOc1ccc(S(=O)(=O)N2CCC(O)C2)cc1 (centres undefined)
123 to 124	COc1ccc(CNc2ncnc3c2ncn3C2OC(Cn3cc(Cc4ccccc4)nn3)C(O)C2O)cc1 (centres undefined)
186	CCOC(=O)c1c(N2CCN(C(=O)c3cccs3)CC2)c2cc(Cl)cnc2n(Cc2cccc(F)c2)c1=O
55 to 57	CCCCCCCCCCCCCCCCCCOc1cccc(N(CC(=O)OCc2ccccc2)CC(=O)OCc2ccccc2)c1
130 to 131	CCOC(=O)Cc1c(-c2ccccc2)c2cc(CO)c(CO)cc2oc1=O
159 to 161	CCOc1ccc(C(=O)OC)cc1C(N)=O
123 to 125	CCc1nnc(NC(=O)C(c2ccccc2)c2ccccc2)o1
105 to 107	CCCSc1nc(NC2CC2c2cccc(N)c2)c2nnn(C3CC(O)C(O)C3O)c2n1 (centres undefined)
135 to 137	CC(C)NCC#CC1(O)c2ccccc2-c2ccccc21
196 to 198	COc1cc(N)c(Cl)cc1Cn1nc(-c2ccc(Cl)c(Cl)c2)oc1=O
31.5 to 32.5	CCCCCCCCCCC1COC(=O)N1 (centres undefined)
54 to 55	COc1ccc(C(CI)(OC)OC)cc1
171 to 172	CNC(=O)c1ccc(-c2ccc(OC)c(-c3cccc([N+](=O)[O-])c3)c2)cc1
134 to 138	COCCOc1cccc(-c2ccc(C3CCN(S(=O)(=O)C(C)(C)C(=O)NO)CC3)cc2C)n1
208	O=C(Nc1cccc(S(=O)(=O)N(CCO)CCO)c1)c1cnn2c(C(F)F)cc(-c3ccc(C(F)(F)F)cc3)nc12
190 to 192	COc1ccc(P2(=O)c3ccccc3CN2c2ccccc2)cc1 (centres undefined)
147 to 148	C[Si](C)(C)CCOCn1ccc2c(=O)[nH]ncc21
157	O=C(O)CCNC(=O)c1cccc(NC(=O)c2csc(NC(=O)NCc3ccccc3)n2)c1

melting point [°C]	Structure (SMILES)
130	COc1ccc2c(c1)c(CC#N)cn2C(=O)OC(C)(C)C
100 to 103	Oc1ccccc1-c1c(Cl)cccc1Cl
51 to 53	CCOC(=O)C1=C[C@H](O)[C@H](NC(C)=O)[C@@H](N=[N+]=[N-])C1
> 275	Cc1ccc(Nc2nc(C)c(-c3nc4ccccc4c(=O)n3-c3ccc(Cl)cc3)s2)cc1
99 to 100	C[C@@H]1[C@H](c2ccccc2)OC(=O)N1C(=O)CCc1ccccc1
103 to 104	Fc1ccccc1-c1ncn(CCCCN2CCOCC2)c1-c1ccncc1
128 to 129	CC(=O)c1ccc2c(c1)Cc1cccc(C(C)=O)c1-2
84 to 85	CCOc1nn(Cc2ccc(Cl)cc2Cl)cc1CCCOc1cc(CCC(=O)O)n(Cc2ccccc2)n1
119 to 121	CC(C)SC(F)(F)c1nnc(N)s1
184 to 185	CC1CNc2c(C#N)cnn2C1c1cc(Cl)ccc1Cl (centres undefined)
201 to 202	CCOc1ccc(C(=O)Nc2ccccc2)cc1NC(=S)Nc1cc(Cl)cc(Cl)c1
172 to 173	COc1cccc([C@H]2O[C@H](CC(=O)Nc3cccc(CCC(=O)O)c3)C(=O)N(CC(C)(C)C)c3ccc(Cl)cc32)c1OC
107	OC1(c2ccccc2)CCN(CCC2Cc3ccccc3O2)CC1 (centres undefined)
159 to 161	O=C(O)c1cc(OCCCCCCc2cccc(O)c2O)ccc1O
145 to 147	CC(=O)Nc1cccc(CNC(=O)[C@H]2N(C(=O)[C@@H](O)[C@H](Cc3ccccc3)NC(=O)c3cccc(O)c3C)CSC2(C)C)c1
122	CC1(C)CS(=O)(=O)CC(C)(C)N1N
96.4 to 98.3	O=C(Nc1ccccc1)c1ccccc1Cl
72 to 73.5	COC(=O)COc1noc2ccc([N+](=O)[O-])cc12
129 to 131	c1ccc2oc(-c3ccncc3)nc2c1
350 to 355	CCCCn1c(=O)c2nc(-c3ccc(/C=C/C(=O)O)cc3)[nH]c2n(CCCC)c1=O
154	O=c1c2ccc(Cl)cc2oc2c(OCc3ccccc3)cccc12

Structure (SMILES)	melting point [°C]
Clc1ccc2c(c1)C(c1ccccc1)=NCc1nnc(Br)n1-2	206
COc1ccc(C(O)CNC(C)Cc2ccc(OCCO)cc2)cc1F (centres undefined)	112 to 115
Cc1cc2c(N3CCCC3C)ccc(C#N)c2o1 (centres undefined)	78 to 80
CC(C)n1cc(C(=O)O)c2ccc(F)cc21	177 to 180
Clc1ccc(-c2ccc(C=CC3COC4(CCCCC4)OO3)cc2)cc1 (centres undefined)	109 to 111
N#Cc1cc(Br)ccc1CBr	81
